Laboratory results as given in ChEMBL document CHEMBL3044631, “Synthesis of 2-[4,5-dimethyl-1-(phenylamino)-1H-imidazol-2-ylthio]-N-(thiazole-2-yl)acetamide derivatives and their anticancer activities” (2013).

Experiments:
Assay type in all cases: functional
OVCAR-8 = assay: Anticancer activity against Homo sapiens (human) OVCAR8 cells assessed as cell growth promotion at 10 uM after 48 hr by SRB assay
SN12C = assay: Anticancer activity against Homo sapiens (human) SN12C cells assessed as cell growth promotion at 10 uM after 48 hr by SRB assay
OVCAR-3 = assay: Anticancer activity against Homo sapiens (human) OVCAR3 cells assessed as cell growth promotion at 10 uM after 48 hr by SRB assay
SF-295 = assay: Anticancer activity against Homo sapiens (human) SF295 cells assessed as cell growth promotion at 10 uM after 48 hr by SRB assay
HOP-92 = assay: Anticancer activity against Homo sapiens (human) HOP92 cells assessed as cell growth promotion at 10 uM after 48 hr by SRB assay
M14 = assay: Anticancer activity against Homo sapiens (human) M14 cells assessed as cell growth promotion at 10 uM after 48 hr by SRB assay
MDA-MB-435 = assay: Anticancer activity against Homo sapiens (human) MDA-MB-435 cells assessed as cell growth promotion at 10 uM after 48 hr by SRB assay
RPMI-8226 = assay: Anticancer activity against Homo sapiens (human) RPMI8226 cells assessed as cell growth promotion at 10 uM after 48 hr by SRB assay
NCI-H322M = assay: Anticancer activity against Homo sapiens (human) NCI-H322M cells assessed as cell growth promotion at 10 uM after 48 hr by SRB assay
SK-MEL-5 = assay: Anticancer activity against Homo sapiens (human) SK-MEL-5 cells assessed as cell growth promotion at 10 uM after 48 hr by SRB assay
OVCAR-5 = assay: Anticancer activity against Homo sapiens (human) OVCAR5 cells assessed as cell growth promotion at 10 uM after 48 hr by SRB assay
HCT-15 = assay: Anticancer activity against Homo sapiens (human) HCT15 cells assessed as cell growth promotion at 10 uM after 48 hr by SRB assay
SF-268 = assay: Anticancer activity against Homo sapiens (human) SF268 cells assessed as cell growth promotion at 10 uM after 48 hr by SRB assay
MCF7 = assay: Anticancer activity against Homo sapiens (human) MCF7 cells assessed as cell growth promotion at 10 uM after 48 hr by SRB assay
MDA-MB-231 = assay: Anticancer activity against Homo sapiens (human) MDA-MB-231/ATCC cells assessed as cell growth promotion at 10 uM after 48 hr by SRB assay
SF-539 = assay: Anticancer activity against Homo sapiens (human) SF539 cells assessed as cell growth promotion at 10 uM after 48 hr by SRB assay
ACHN = assay: Anticancer activity against Homo sapiens (human) ACHN cells assessed as cell growth promotion at 10 uM after 48 hr by SRB assay
Malme-3M = assay: Anticancer activity against Homo sapiens (human) MALME-3M cells assessed as cell growth promotion at 10 uM after 48 hr by SRB assay
HL-60(TB) = assay: Anticancer activity against Homo sapiens (human) HL-60(TB) cells assessed as cell growth promotion at 10 uM after 48 hr by SRB assay
786-0 = assay: Anticancer activity against Homo sapiens (human) 786-0 cells assessed as cell growth promotion at 10 uM after 48 hr by SRB assay
TK-10 = assay: Anticancer activity against Homo sapiens (human) TK10 cells assessed as cell growth promotion at 10 uM after 48 hr by SRB assay
HOP-62 = assay: Anticancer activity against Homo sapiens (human) HOP62 cells assessed as cell growth promotion at 10 uM after 48 hr by SRB assay
NCI-H23 = assay: Anticancer activity against Homo sapiens (human) NCI-H23 cells assessed as cell growth promotion at 10 uM after 48 hr by SRB assay
RXF 393 = assay: Anticancer activity against Homo sapiens (human) RXF393 cells assessed as cell growth promotion at 10 uM after 48 hr by SRB assay
UO-31 = assay: Anticancer activity against Homo sapiens (human) UO31 cells assessed as cell growth promotion at 10 uM after 48 hr by SRB assay
LOX IMVI = assay: Anticancer activity against Homo sapiens (human) LOXIMVI cells assessed as cell growth promotion at 10 uM after 48 hr by SRB assay
UACC-62 = assay: Anticancer activity against Homo sapiens (human) UACC62 cells assessed as cell growth promotion at 10 uM after 48 hr by SRB assay
A498 = assay: Anticancer activity against Homo sapiens (human) A498 cells assessed as cell growth promotion at 10 uM after 48 hr by SRB assay
EKVX = assay: Anticancer activity against Homo sapiens (human) EKVX cells assessed as cell growth promotion at 10 uM after 48 hr by SRB assay
NCI-H226 = assay: Anticancer activity against Homo sapiens (human) NCI-H226 cells assessed as cell growth promotion at 10 uM after 48 hr by SRB assay
COLO 205 = assay: Anticancer activity against Homo sapiens (human) COLO205 cells assessed as cell growth promotion at 10 uM after 48 hr by SRB assay
NCI-H522 = assay: Anticancer activity against Homo sapiens (human) NCI-H522 cells assessed as cell growth promotion at 10 uM after 48 hr by SRB assay
DU-145 = assay: Anticancer activity against Homo sapiens (human) DU145 cells assessed as cell growth promotion at 10 uM after 48 hr by SRB assay
OVCAR-4 = assay: Anticancer activity against Homo sapiens (human) OVCAR4 cells assessed as cell growth promotion at 10 uM after 48 hr by SRB assay
SK-MEL-2 = assay: Anticancer activity against Homo sapiens (human) SK-MEL-2 cells assessed as cell growth promotion at 10 uM after 48 hr by SRB assay
PC-3 = assay: Anticancer activity against Homo sapiens (human) PC3 cells assessed as cell growth promotion at 10 uM after 48 hr by SRB assay
UACC-257 = assay: Anticancer activity against Homo sapiens (human) UACC257 cells assessed as cell growth promotion at 10 uM after 48 hr by SRB assay
KM12 = assay: Anticancer activity against Homo sapiens (human) KM12 cells assessed as cell growth promotion at 10 uM after 48 hr by SRB assay
T47D = assay: Anticancer activity against Homo sapiens (human) T47D cells assessed as cell growth promotion at 10 uM after 48 hr by SRB assay
HCC 2998 = assay: Anticancer activity against Homo sapiens (human) HCC2998 cells assessed as cell growth promotion at 10 uM after 48 hr by SRB assay

Row | Compound | Activity (OVCAR-8) [%] | Activity (SN12C) [%] | Activity (OVCAR-3) [%] | Activity (SF-295) [%] | Activity (HOP-92) [%] | Activity (M14) [%] | Activity (MDA-MB-435) [%] | Activity (RPMI-8226) [%] | Activity (NCI-H322M) [%] | Activity (SK-MEL-5) [%] | Activity (OVCAR-5) [%] | Activity (HCT-15) [%] | Activity (SF-268) [%] | Activity (MCF7) [%] | Activity (MDA-MB-231) [%] | Activity (SF-539) [%] | Activity (ACHN) [%] | Activity (Malme-3M) [%] | Activity (HL-60(TB)) [%] | Activity (786-0) [%] | further results
1 | COc1ccc(Nn2c(SCC(=O)Nc3nccs3)nc(C)c2C)cc1 | 103.25 | 98.23 | 113.42 | 91.49 | 117.01 | 107.71 | 97.68 | 102.22 | 110.58 | 102.75 | 89.33 | 100.06 | 103.59 | 102.31 | 105.41 | 101.05 | 100.51 | 119.7 | 98.86 | 100.29 | Activity (TK-10): 105.37%; Activity (HOP-62): 106.4%; Activity (NCI-H23): 106.56%; Activity (RXF 393): 126.87%; Activity (UO-31): 86.71%; Activity (LOX IMVI): 105.4%; Activity (UACC-62): 95.78%; Activity (A498): 99.48%; Activity (EKVX): 108.98%; Activity (NCI-H226): 105.15%; Activity (COLO 205): 107.27%; Activity (NCI-H522): 95.16%; Activity (DU-145): 112.49%; Activity (OVCAR-4): 110.54%; Activity (SK-MEL-2): 92.7%; Activity (PC-3): 103.43%; Activity (UACC-257): 108.29%; Activity (KM12): 96.74%; Activity (T47D): 94.87%; Activity (HCC 2998): 110.49%
2 | Cc1ccc(Nn2c(SCC(=O)Nc3nc(-c4ccccc4)cs3)nc(C)c2C)cc1 | 55.49 | 64.31 | 78.47 | 46.1 | 59.94 | 76.97 | 76.71 | 55.78 | 96.01 | 66.75 | 81.8 | 67.18 | 81.68 | 24.07 | 46 | 73.68 | 60.88 | 92.03 | 63.8 | 82.27 | Activity (TK-10): 72.7%; Activity (HOP-62): 67.17%; Activity (NCI-H23): 39.38%; Activity (RXF 393): 61.47%; Activity (UO-31): 51.58%; Activity (LOX IMVI): 51.93%; Activity (UACC-62): 51.82%; Activity (A498): 92.54%; Activity (EKVX): 49.68%; Activity (NCI-H226): 46.34%; Activity (COLO 205): 32.48%; Activity (NCI-H522): 49.7%; Activity (DU-145): 83.4%; Activity (OVCAR-4): 25.36%; Activity (SK-MEL-2): 81.38%; Activity (PC-3): 71.8%; Activity (UACC-257): 54.08%; Activity (KM12): 82.85%; Activity (T47D): 6.48%; Activity (HCC 2998): 91.96%
3 | CCOC(=O)c1csc(NC(=O)CSc2nc(C)c(C)n2Nc2ccc(C)cc2)n1 | 82.64 | 62.75 | 108.5 | 53.71 | 44.51 | 70.97 | 78.21 | 72.05 | 97.18 | 47.48 | 74.57 | 98.05 | 102.22 | 80.14 | 62.5 | 73.62 | 76.52 | 110.81 | 77.24 | 83.82 | Activity (TK-10): 77.84%; Activity (HOP-62): 63.23%; Activity (NCI-H23): 74.71%; Activity (RXF 393): 38.47%; Activity (UO-31): 62.65%; Activity (LOX IMVI): 77.98%; Activity (UACC-62): 62.91%; Activity (A498): 90.47%; Activity (EKVX): 99.66%; Activity (NCI-H226): 70.72%; Activity (COLO 205): 80.51%; Activity (NCI-H522): 76.3%; Activity (DU-145): 108.96%; Activity (OVCAR-4): 74.76%; Activity (SK-MEL-2): 93.46%; Activity (PC-3): 88.3%; Activity (UACC-257): 88.46%; Activity (KM12): 108.43%; Activity (T47D): 57.89%; Activity (HCC 2998): 96.72%
